This note sets out measurements from ChEMBL document CHEMBL5385876, “Discovery of unglycosylated indolocarbazoles as ROCK2 isoform-selective inhibitors for the treatment of breast cancer metastasis” (Eur J Med Chem, 2023).

As usually defined, the IC50 is the concentration that gives 50% inhibition. High values mean lower potency, low ones higher potency.

The structures appear in SMILES notation.

Rho-associated protein kinase 2, sequence (O75116 whole entry, the tested form may be a part): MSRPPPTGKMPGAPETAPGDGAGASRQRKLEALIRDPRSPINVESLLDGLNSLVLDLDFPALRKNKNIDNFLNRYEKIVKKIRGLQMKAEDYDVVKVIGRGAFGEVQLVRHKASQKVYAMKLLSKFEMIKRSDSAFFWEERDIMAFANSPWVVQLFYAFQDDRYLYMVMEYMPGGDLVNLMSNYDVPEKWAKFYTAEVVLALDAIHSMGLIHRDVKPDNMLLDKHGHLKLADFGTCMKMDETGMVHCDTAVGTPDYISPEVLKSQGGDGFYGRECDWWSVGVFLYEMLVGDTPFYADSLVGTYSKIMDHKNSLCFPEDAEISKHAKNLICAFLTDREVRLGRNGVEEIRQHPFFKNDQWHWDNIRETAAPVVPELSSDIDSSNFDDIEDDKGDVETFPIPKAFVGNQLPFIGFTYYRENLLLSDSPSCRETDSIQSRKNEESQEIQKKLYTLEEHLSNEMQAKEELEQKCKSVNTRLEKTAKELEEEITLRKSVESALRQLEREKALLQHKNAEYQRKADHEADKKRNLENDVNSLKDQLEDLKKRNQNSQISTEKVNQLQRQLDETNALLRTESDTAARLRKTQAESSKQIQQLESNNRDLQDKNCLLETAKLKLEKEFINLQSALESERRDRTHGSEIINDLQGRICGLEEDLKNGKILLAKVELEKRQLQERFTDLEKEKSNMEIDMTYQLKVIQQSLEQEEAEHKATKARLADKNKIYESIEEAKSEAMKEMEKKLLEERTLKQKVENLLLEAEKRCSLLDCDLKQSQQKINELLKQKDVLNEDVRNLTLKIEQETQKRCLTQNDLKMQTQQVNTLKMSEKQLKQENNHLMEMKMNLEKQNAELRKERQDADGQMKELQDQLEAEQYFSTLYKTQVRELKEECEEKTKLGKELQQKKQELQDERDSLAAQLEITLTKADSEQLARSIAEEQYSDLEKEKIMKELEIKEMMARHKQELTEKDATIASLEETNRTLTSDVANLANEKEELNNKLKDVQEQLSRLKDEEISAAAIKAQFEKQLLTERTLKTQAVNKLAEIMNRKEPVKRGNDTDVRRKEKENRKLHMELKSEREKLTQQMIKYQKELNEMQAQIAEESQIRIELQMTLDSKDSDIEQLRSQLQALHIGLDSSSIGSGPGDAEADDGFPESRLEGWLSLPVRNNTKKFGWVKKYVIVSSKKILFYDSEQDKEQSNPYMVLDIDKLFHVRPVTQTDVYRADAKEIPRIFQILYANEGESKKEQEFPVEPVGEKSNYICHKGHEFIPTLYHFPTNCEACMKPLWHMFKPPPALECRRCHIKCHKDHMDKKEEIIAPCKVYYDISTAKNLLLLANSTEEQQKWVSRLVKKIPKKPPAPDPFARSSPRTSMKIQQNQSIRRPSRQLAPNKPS

The assay concerns the target Rho-associated protein kinase 2 (Homo sapiens, UniProt O75116). Kind of assay: Inhibition of N-terminal His10-StrepII tagged human ROCK2 catalytic domain (1 to 553 residues) expressed in Sf9 insect cells by HTRF assay. On the technique in general: TR-FRET usually uses a lanthanide donor and a delayed reading to cut background.
The compound `C[C@@H]1O[C@@H](n2c3ccccc3c3c4c(c5c6ccccc6[nH]c5c32)CNC4=O)C[C@@H](N)[C@H]1OC(O)C1CO1` (stereo partly specified) showed an IC50 of 140 nM. The same measure for `CO[C@@H]1[C@@H](O)[C@@H](O)[C@H]2O[C@]1(C)n1c3ccccc3c3c4c(c5c6ccccc6n2c5c31)C(=O)N[C@H]4OC`: > 500 nM. Then `CO[C@@H]1[C@H](N(C)C=O)C[C@H]2O[C@]1(C)n1c3ccccc3c3c4c(c5c6ccccc6n2c5c31)C(=O)NC4`, with 140 nM. As for `CO[C@@H]1[C@@H](O)[C@@H](O)[C@H]2O[C@]1(C)n1c3ccccc3c3c4c(c5c6ccccc6n2c5c31)C(=O)N[C@H]4O`, the IC50 was > 500 nM. The same measure for `O=C1NC(O)c2c1c1c3ccccc3[nH]c1c1[nH]c3ccccc3c21` (stereo unspecified): > 500 nM; for `COc1ccc2[nH]c3c4[nH]c5ccc(O)cc5c4c4c(c3c2c1)C(=O)NC4`: 460 nM; for `COc1cccc2c1[nH]c1c3[nH]c4ccccc4c3c3c(c21)C(=O)NC3=O`: > 500 nM.

Regarding `CO[C@@H]1[C@H](N)C[C@H]2O[C@]1(C)n1c3ccccc3c3c4c(c5c6ccccc6n2c5c31)C(=O)NC4=O`, 360 nM corresponded to half-maximal inhibition (IC50).

Regarding `COC1=C(C)O[C@@H]2C[C@@]1(OC)n1c3ccccc3c3c4c(c5c6ccccc6n2c5c31)C(=O)NC4`, the IC50 is > 500 nM. With `COc1ccc2[nH]c3c4[nH]c5ccccc5c4c4c(c3c2c1)C(=O)NC4`, the IC50 is > 500 nM. Then `CO[C@H]1[C@@H](N2CC[C@@H](O)C2=O)C[C@H]2O[C@@]1(C)n1c3ccccc3c3c4c(c5c6ccccc6n2c5c31)C(=O)NC4` (racemic), with 260 nM; and `COC1NC(=O)c2c1c1c3ccccc3[nH]c1c1[nH]c3ccc(O)cc3c21` (stereo unspecified), with 320 nM.

On to `Cc1ccc2[nH]c3c4[nH]c5ccccc5c4c4c(c3c2c1)C(=O)NC4=O`, for which the IC50 is > 500 nM. The same measure for `CO[C@@H]1[C@H](NC=O)C[C@H]2O[C@]1(C)n1c3ccccc3c3c4c(c5c6ccccc6n2c5c31)C(=O)NC4`: > 500 nM. The same measure for `O=C1NCc2c1c1c3ccccc3[nH]c1c1[nH]c3cc(O)ccc3c21`: 200 nM; for `CO[C@@H]1C(=O)C[C@H]2O[C@]1(C)n1c3ccccc3c3c4c(c5c6ccccc6n2c5c31)C(=O)NC4`: > 500 nM; for `C[C@]12O[C@H](C[C@@H](O)[C@H]1O)n1c3ccccc3c3c4c(c5c6ccccc6n2c5c31)CNC4=O`: 2880 nM. Then `O=C1NC(=O)c2c1c1c3ccccc3[nH]c1c1[nH]c3cc(O)ccc3c21`, with 530 nM; and `CO[C@H]1NC(=O)c2c1c1c3ccccc3n3c1c1c2c2ccccc2n1[C@@H]1O[C@@]3(C)[C@H](OC)[C@@H](O)[C@H]1O`, with > 500 nM.

For the compound `O=C1NCc2c1c1c3cccc(O)c3[nH]c1c1[nH]c3ccccc3c21`, the IC50 was 260 nM.

In turn, `CO[C@@H]1[C@@H](O)C[C@H]2O[C@]1(C)n1c3ccccc3c3c4c(c5c6ccccc6n2c5c31)C(=O)NC4` displayed an IC50 of 720 nM. The same measure for `CNC(=O)C[C@H]1O[C@@](C)(C(=O)OC)n2c3ccccc3c3c4c(c5c6ccccc6n1c5c32)C(=O)NC4`: 2720 nM.

Consider `COC(=O)c1cccc2c1NC1(C[C@H]3O[C@]1(C)n1c4ccccc4c4c5c(c6c7ccccc7n3c6c41)C(=O)NC5)C(=O)O2` (stereo partly specified), for which the IC50 is > 500 nM. Then `COc1ccc2c(c1)[nH]c1c3[nH]c4ccccc4c3c3c(c21)C(=O)NC3=O`, with 620 nM. Consider `C[C@@H]1O[C@@H](n2c3ccccc3c3c4c(c5c6ccccc6[nH]c5c32)CNC4=O)C[C@@H](NC=O)[C@H]1O`, for which the IC50 is > 500 nM.

On to `CN1Cc2c(c3c4ccccc4[nH]c3c3[nH]c4ccccc4c23)C1=O`, for which the IC50 was determined as 510 nM. In turn, `CC1NC(=O)c2c1c1c3ccccc3[nH]c1c1[nH]c3ccccc3c21` (stereo unspecified) had an IC50 of 8220 nM.

`Cn1c2ccccc2c2c3c(c4c5ccccc5[nH]c4c21)C(=O)NC3` showed an IC50 of 550 nM. In turn, `CO[C@@H]1[C@H](O)C[C@H]2O[C@]1(C)n1c3ccccc3c3c4c(c5c6ccccc6n2c5c31)C(=O)NC4` gave an IC50 of 8000 nM. The same measure for `COC(=O)[C@]1(O)C[C@H]2O[C@]1(C)n1c3ccccc3c3c4c(c5c6ccccc6n2c5c31)C(=O)NC4`: > 500 nM. `C[C@H]1O[C@@H]2C[C@](O)([C@@H]1O)n1c3ccccc3c3c4c(c5c6ccccc6n2c5c31)C(=O)NC4`: the IC50 was > 500 nM. Consider `O=C1NCc2c1c1c3ccccc3[nH]c1c1[nH]c3c(O)cccc3c21`, for which the IC50 was > 500 nM. Then `CO[C@@H]1/C(=N/O)C[C@H]2O[C@]1(C)n1c3ccccc3c3c4c(c5c6ccccc6n2c5c31)C(=O)NC4`, with > 500 nM. The same measure for `C[C@@H]1O[C@@H]2C[C@](O)([C@H]1O)n1c3ccccc3c3c4c(c5c6cc(O)ccc6n2c5c31)C(=O)NC4`: 210 nM; for `CC(=O)N[C@@H]1C[C@H](n2c3ccccc3c3c4c(c5c6ccccc6[nH]c5c32)C(=O)NC4=O)O[C@@H](C)[C@@H]1O`: 2240 nM.

Turning to `CO[C@@H]1[C@H](NC(=O)C(=O)c2c[nH]c3ccccc23)C[C@H]2O[C@]1(C)n1c3ccccc3c3c4c(c5c6ccccc6n2c5c31)C(=O)NC4`, the IC50 is 4780 nM. In turn, `C[C@H]1O[C@@H]2C[C@](O)([C@H]1O)n1c3ccccc3c3c4c(c5c6cc(O)ccc6n2c5c31)C(=O)NC4` yielded an IC50 of 120 nM. Turning to `CC(=O)N[C@H]1C[C@H]2O[C@@](C)([C@@H]1O)n1c3ccccc3c3c4c(c5c6ccccc6n2c5c31)C(=O)NC4`, the IC50 amounted to 60 nM.

For the compound `COc1ccc2[nH]c3c4[nH]c5ccc(OC)cc5c4c4c(c3c2c1)CNC4=O`, the IC50 was > 500 nM. Regarding `COc1ccc2[nH]c3c4[nH]c5ccc(OC)cc5c4c4c(c3c2c1)C(=O)NC4=O` [GW296115X], the IC50 was > 500 nM.

For the compound `COC(=O)[C@@]1(OC)C[C@H]2O[C@]1(C)n1c3ccccc3c3c4c(c5c6ccccc6n2c5c31)C(=O)NC4`, the IC50 came out at 330 nM.

As to `COc1ccc2c(c1)c1c3c(c4c5ccccc5n(C)c4c1n2C)C(=O)N(C)C3=O`, the IC50 was > 500 nM. Consider `O=C1NCc2c1c1c3ccccc3[nH]c1c1[nH]c3ccccc3c21` [STAUROSPORINONE], for which the IC50 was > 500 nM. Take `COc1ccc2[nH]c3c4[nH]c5ccc(O)cc5c4c4c(c3c2c1)C(=O)NC4=O`: the IC50 came out at 110 nM. Then `CO[C@H]1C(=O)C[C@H]2O[C@]1(C)n1c3ccccc3c3c4c(c5c6ccccc6n2c5c31)C(=O)NC4`, with > 500 nM; and `Cc1ccc2[nH]c3c4[nH]c5ccccc5c4c4c(c3c2c1)CNC4=O`, with > 500 nM; and `O=C1NC(=O)c2c1c1c3ccccc3[nH]c1c1[nH]c3ccc(O)cc3c21`, with 670 nM. Then `COc1ccc2[nH]c3c4[nH]c5ccccc5c4c4c(c3c2c1)C(=O)NC4=O`, with 100 nM; and `O=C1NC(=O)c2c1c1c3ccccc3[nH]c1c1[nH]c3c(O)cccc3c21`, with > 500 nM. The same measure for `CO[C@@H]1[C@H](N(C)C(C)=O)C[C@H]2O[C@]1(C)n1c3ccccc3c3c4c(c5c6ccccc6n2c5c31)C(=O)NC4=O`: 2070 nM; for `CO[C@@H]1[C@@H](O)[C@@H](O)[C@H]2O[C@]1(C)n1c3ccccc3c3c4c(c5c6ccccc6n2c5c31)C(=O)NC4=O`: > 500 nM. `C[C@@H]1O[C@@H](n2c3ccccc3c3c4c(c5c6ccccc6[nH]c5c32)CNC4=O)[C@H](O)[C@H](O)[C@H]1O` came in with an IC50 of 470 nM. Then `C[C@@H]1O[C@@H](n2c3ccc(O)cc3c3c4c(c5c6ccccc6[nH]c5c32)CNC4=O)[C@H](O)[C@H](O)[C@H]1O`, with 76 nM; and `CO[C@@H]1[C@@H](O)[C@@H](O)[C@H]2O[C@]1(C)n1c3ccccc3c3c4c(c5c6ccccc6n2c5c31)C(=O)NC4`, with 690 nM; and `COC(=O)[C@H]1C[C@H]2O[C@]1(C)n1c3ccccc3c3c4c(c5c6ccccc6n2c5c31)C(=O)NC4`, with 370 nM. Take `COC(=O)[C@@]1(O)C[C@H]2O[C@]1(C)n1c3ccccc3c3c4c(c5c6ccccc6n2c5c31)C(=O)NC4` [K-252A]: the IC50 is > 500 nM.

`CC(=O)N[C@@H]1C[C@H](n2c3ccccc3c3c4c(c5c6ccccc6[nH]c5c32)CNC4=O)O[C@@H](C)[C@@H]1O`: the IC50 amounted to 2700 nM. Turning to `CO[C@@H]1[C@@H](O)[C@@H](O)[C@H]2O[C@]1(C)n1c3ccccc3c3c4c(c5c6ccccc6n2c5c31)C(=O)N[C@@H]4O`, the 50% inhibitory concentration (IC50) is > 500 nM.

In the case of `C[C@@H]1O[C@@H]2C[C@](O)([C@H]1O)n1c3ccccc3c3c4c(c5c6ccccc6n2c5c31)C(=O)NC4`, the IC50 was > 500 nM. In the case of `C[C@@H]1O[C@@H](n2c3ccccc3c3c4c(c5c6ccccc6[nH]c5c32)C(=O)NC4=O)C[C@@H](NC=O)[C@H]1O`, inhibition was half-maximal at 250 nM (IC50). Then `CC(C)(C)c1ccc2[nH]c3c4[nH]c5ccccc5c4c4c(c3c2c1)CNC4=O`, with > 500 nM. The same measure for `C[C@@H]1O[C@@H](n2c3ccccc3c3c4c(c5c6ccccc6[nH]c5c32)C(=O)NC4=O)[C@H](O)[C@H](O)[C@H]1O`: > 500 nM; for `O=C1NCc2c1c1c3cc(O)ccc3[nH]c1c1[nH]c3ccc(O)cc3c21`: 3 nM; for `CO[C@@H]1[C@H](N(C)C(N)=O)C[C@H]2O[C@]1(C)n1c3ccccc3c3c4c(c5c6ccccc6n2c5c31)C(=O)NC4`: 360 nM.

As to `O=C1NC(=O)c2c1c1c3cc(O)ccc3[nH]c1c1[nH]c3ccc(O)cc3c21`, half-maximal inhibition (IC50) required 7 nM. The same measure for `CC(C)(C)c1ccc2[nH]c3c4[nH]c5ccccc5c4c4c(c3c2c1)C(=O)NC4`: > 500 nM; for `C[C@]12O[C@H](C[C@@H](N)[C@H]1O)n1c3ccccc3c3c4c(c5c6ccccc6n2c5c31)C(=O)NC4=O`: 360 nM; for `C[C@]12O[C@H](C[C@]1(O)C(=O)O)n1c3ccccc3c3c4c(c5c6ccccc6n2c5c31)CNC4=O`: > 500 nM. Turning to `CO[C@@H]1C(C)(O)O[C@@H]2C[C@@]1(OC)n1c3ccccc3c3c4c(c5c6ccccc6n2c5c31)C(=O)NC4` (stereo partly specified), the IC50 was > 500 nM. Regarding `C[C@@H]1O[C@@H](n2c3ccccc3c3c4c(c5c6ccccc6[nH]c5c32)[C@H](O)NC4=O)[C@H](O)[C@H](O)[C@H]1O`, the IC50 is > 500 nM. Then `COc1cc(/C=C(/C(N)=O)n2c3ccccc3c3c4c(c5c6ccccc6[nH]c5c32)CNC4=O)ccc1O`, with 2120 nM.
